What was measured:
DCs [1] = experiment: DC activation and cytokine expression by flow cytometry; format: cell-based, C57BL/6j mice; details: for CD86 expression in CD11c+ cells: equivalent amount as PaKG MPs, vs no treatment control and PaKG MP condition
Description: Briefly, femur and tibia from mice were isolated and kept in wash media composed of DMEM/F-12 (1:1) with L-glutamine, 10% fetal bovine and 1% penicillin-streptomycin. The ends of the bones were cut, and bone marrow was flushed out with 10 mL wash media and mixed to make a homogeneous suspension. Red blood cells were lysed by incubating and resuspending the pellet in 3 mL 1× red blood cell (RBC) lysis buffer for 3 minutes at 4° C. The cell suspension was then washed twice with wash media and re-suspended in DMEM/F-12 with L-glutamine, 10% fetal bovine serum, 1% sodium pyruvate, 1% non-essential amino acids (VWR, Radnor, Pa.), 1% penicillin-streptomycin and 20 ng/ml GM-CSF (DC media). All % values shown here are vol/vol. This cell suspension was then seeded in a tissue culture-treated T-75 flask (day 0). After 48 hours (day 2), floating cells were collected, centrifuged, re-suspended in fresh media and seeded on low attachment plates for 6 additional days. Half of the media was changed every alternate day. At the end of 6 days (day 8), cells were lifted from the low attachment wells by gentle pipetting, re-suspended and seeded on tissue culture-treated polystyrene plates for 2 more days before treating them. […] Purity, yield, and immaturity of DCs (CD11c, MHC-II and CD86) were verified via immunofluorescence staining and flow cytometry. Dendritic cells were isolated from at least 3 separate mice for each experiment.

DCs [2] = experiment: Seahorse Assay (ECAR and OCR)
Description: Lipopolysaccharide (LPS) was used as a positive control, and no treatment was used as a negative control.
Sequential injections were performed with D-glucose (10 mM), oligomycin (1 mM), and 2-deoxyglucose (100 mmol/L). The extracellular acidification rates (ECAR) after the injection of D-glucose was a measure of glycolysis, and the ECAR after the injection of oligomycin represented maximal glycolytic capacity. Non-glycolytic activity was quantified by the measure of ECAR after the injection of 2-deoxyglucose. Samples were analyzed with 10 technical replicates.
For oxidative phosphorylation, 24 hours after cell seeding, media was changed to unbuffered DMEM containing 2 mM glutamine, 1 mM pyruvate, and 10 mM glucose. […] The oxygen consumption rate (OCR) after the injection of oligomycin was a measure of ATP-linked respiration and the OCR after the injection of FCCP represented maximal respiratory capacity. Basal respiration was quantified by the measure of OCR prior to the injection of oligomycin. Samples were analyzed with 10 technical replicates.

| Molecule | frequency of MHC-II+CD86+ in DCs (DCs [1]; vs untreated immature DCs) | CD86 expression in CD11c+ cells (DCs [1]) | glycolysis levels compared to PaKG MPs (DCs [2]; DCs) | glycolysis (DCs [2]; vs no treatment control (PaKG MPs also vs LPS)) |
| --- | --- | --- | --- | --- |
| Lipopolysaccharide [LPS] | significantly upregulated | – | – | – |
| OCCCCCCCCCCO [1,10-decanediol] | – | did not significantly change | – | – |
| O=C(O)CCC(=O)C(=O)O [soluble aKG, alpha-ketoglutarate] | – | did not significantly change | higher | decreased |

Source: US20220226499A1, “Metabolite Delivery for Modulating Metabolic Pathways of Cells” (Arizona Board of Regents on Behalf of Arizona State …, priority 2019, published 2022)
